Patent US20200239530A1, “COMPOUNDS AND METHODS OF MODULATING PROTEIN DEGRADATION” (Vividion Therapeutics, Inc., priority 2017, published 2020)

Tests used:
Test in all cases: Cysteine liganding, probe competition
Assay type in all cases: binding
[1] = target: T1, HADHB Trifunctional enzyme subunit beta, mitochondrial (Homo sapiens, UniProt P55084)
T1 construct: Cells were resuspended in cold PBS on ice and sonicated with a probe sonicator to achieve lysis; endogenous in cells
Procedure, shortened: (§1)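 Probe competition in native proteome: 5 mg/ml lysate, compound 1 hr 25° C, then desthiobiotin iodoacetamide (10 mM stock) 1 hr 25° C; acetone ppt, urea/DTT reduction, iodoacetamide alkylation, trypsin, streptavidin pull-down.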

SQSTM1 Sequestosome-1 = target: T2, SQSTM1 Sequestosome-1 (Homo sapiens, UniProt Q13501)
T2 construct: Cells were resuspended in cold PBS on ice and sonicated with a probe sonicator to achieve lysis; endogenous in cells
Procedure, shortened: as §1

[2] = target: T3, BACH1 Transcription regulator protein BACH1 (Homo sapiens, UniProt O14867); conditions: for Liganded: BACH1 Res# 224, uniprot O14867
T3 construct: Cells were resuspended in cold PBS on ice and sonicated with a probe sonicator to achieve lysis; endogenous in cells
T3 sequence (O14867 1-736): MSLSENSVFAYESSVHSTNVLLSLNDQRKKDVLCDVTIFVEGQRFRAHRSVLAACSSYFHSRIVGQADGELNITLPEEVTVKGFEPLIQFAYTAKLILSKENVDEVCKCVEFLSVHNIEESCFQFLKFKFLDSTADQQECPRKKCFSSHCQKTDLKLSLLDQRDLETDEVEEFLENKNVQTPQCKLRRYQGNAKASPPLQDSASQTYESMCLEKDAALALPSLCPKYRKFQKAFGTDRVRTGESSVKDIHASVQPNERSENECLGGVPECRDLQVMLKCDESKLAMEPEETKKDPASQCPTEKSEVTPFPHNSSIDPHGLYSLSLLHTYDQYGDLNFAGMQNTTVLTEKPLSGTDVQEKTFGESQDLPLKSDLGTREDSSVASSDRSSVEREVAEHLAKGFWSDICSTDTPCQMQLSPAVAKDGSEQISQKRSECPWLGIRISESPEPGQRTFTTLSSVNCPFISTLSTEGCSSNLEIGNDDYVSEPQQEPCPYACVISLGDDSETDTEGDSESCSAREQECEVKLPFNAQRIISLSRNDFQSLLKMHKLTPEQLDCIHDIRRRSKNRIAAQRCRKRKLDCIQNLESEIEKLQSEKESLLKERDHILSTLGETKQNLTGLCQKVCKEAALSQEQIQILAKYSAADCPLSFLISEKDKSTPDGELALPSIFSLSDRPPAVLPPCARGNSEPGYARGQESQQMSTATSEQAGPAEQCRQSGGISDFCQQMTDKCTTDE
Procedure, shortened: as §1

[3] = target: T4, IDH2 Isocitrate dehydrogenase (Homo sapiens, UniProt P48735)
T4 construct: Cells were resuspended in cold PBS on ice and sonicated with a probe sonicator to achieve lysis; endogenous in cells
T4 sequence (P48735 40-452): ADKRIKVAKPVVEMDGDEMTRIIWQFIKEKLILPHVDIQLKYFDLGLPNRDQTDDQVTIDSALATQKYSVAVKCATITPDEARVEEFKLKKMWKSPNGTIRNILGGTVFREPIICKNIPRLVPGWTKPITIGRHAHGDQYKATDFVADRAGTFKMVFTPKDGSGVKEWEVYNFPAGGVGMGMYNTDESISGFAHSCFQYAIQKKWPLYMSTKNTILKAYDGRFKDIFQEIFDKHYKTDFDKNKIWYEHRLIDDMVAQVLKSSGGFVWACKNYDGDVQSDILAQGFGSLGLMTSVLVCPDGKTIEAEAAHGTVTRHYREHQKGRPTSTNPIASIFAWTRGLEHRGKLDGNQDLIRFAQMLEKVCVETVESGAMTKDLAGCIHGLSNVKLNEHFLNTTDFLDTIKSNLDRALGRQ
Procedure, shortened: as §1

T1 sequence (P55084 34-474): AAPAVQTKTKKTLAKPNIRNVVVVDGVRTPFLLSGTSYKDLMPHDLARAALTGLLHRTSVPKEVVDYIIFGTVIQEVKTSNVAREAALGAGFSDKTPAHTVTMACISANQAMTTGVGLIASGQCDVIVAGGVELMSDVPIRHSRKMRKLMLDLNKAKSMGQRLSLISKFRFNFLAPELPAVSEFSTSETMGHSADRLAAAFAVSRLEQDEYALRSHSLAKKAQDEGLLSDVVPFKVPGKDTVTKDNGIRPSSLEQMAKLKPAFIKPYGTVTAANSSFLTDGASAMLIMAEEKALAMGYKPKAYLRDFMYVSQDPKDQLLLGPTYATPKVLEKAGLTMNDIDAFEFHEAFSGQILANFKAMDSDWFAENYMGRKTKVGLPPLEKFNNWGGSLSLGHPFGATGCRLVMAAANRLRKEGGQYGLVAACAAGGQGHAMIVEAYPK
T1 sequence (P40939 37-763 partner): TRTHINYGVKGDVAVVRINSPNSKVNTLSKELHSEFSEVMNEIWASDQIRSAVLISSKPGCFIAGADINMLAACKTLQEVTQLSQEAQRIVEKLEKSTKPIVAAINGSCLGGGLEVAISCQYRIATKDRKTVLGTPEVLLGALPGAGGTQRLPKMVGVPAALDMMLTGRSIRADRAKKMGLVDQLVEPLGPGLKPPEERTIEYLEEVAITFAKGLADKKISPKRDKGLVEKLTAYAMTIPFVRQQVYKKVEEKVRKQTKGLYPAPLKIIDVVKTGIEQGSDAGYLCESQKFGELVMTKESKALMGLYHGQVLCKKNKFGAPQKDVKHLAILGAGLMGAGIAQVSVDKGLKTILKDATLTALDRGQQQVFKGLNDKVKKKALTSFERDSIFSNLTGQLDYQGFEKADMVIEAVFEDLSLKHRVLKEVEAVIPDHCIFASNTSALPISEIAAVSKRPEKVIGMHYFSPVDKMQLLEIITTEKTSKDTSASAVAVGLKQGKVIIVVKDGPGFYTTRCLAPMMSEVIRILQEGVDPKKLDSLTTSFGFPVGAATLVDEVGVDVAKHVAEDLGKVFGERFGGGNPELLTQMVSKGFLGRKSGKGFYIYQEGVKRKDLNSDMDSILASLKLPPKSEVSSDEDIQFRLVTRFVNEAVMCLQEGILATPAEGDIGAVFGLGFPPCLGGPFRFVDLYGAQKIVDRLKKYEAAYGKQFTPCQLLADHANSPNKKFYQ
T2 sequence (Q13501 whole entry): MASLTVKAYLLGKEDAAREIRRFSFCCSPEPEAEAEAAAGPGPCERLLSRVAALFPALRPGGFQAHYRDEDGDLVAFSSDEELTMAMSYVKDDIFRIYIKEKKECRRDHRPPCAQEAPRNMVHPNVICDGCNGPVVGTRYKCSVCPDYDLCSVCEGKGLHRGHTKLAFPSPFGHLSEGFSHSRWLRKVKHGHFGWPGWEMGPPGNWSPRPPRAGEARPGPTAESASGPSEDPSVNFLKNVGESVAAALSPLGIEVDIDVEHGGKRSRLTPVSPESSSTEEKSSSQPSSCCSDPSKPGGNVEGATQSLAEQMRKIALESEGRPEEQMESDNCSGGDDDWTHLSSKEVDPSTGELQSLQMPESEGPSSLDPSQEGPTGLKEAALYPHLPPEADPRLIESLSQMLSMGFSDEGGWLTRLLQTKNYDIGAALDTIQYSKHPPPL

**Q.** What does the source list for `COc1ccc2c(c1)CCCN2C(=O)CCl` [KB02]?
**A.** Liganded ([1]; HADHB Res# 458, uniprot P55084): YES; Liganded (SQSTM1 Sequestosome-1; SQSTM1 Res# 131, uniprot Q13501): YES; Liganded [2]: YES; Liganded ([3]; IDH2 Res# 154, uniprot P48735): YES

**Q.** Which results are given for `O=C(CCl)Nc1cc(C(F)(F)F)cc(C(F)(F)F)c1` [KBO3]?
**A.** 100 Max ([1]; uniprot P55084): 26.24; 100 ave ([1]; uniprot P55084): 15.245; 500 Max ([1]; uniprot P55084): 64.33; 500 ave ([1]; uniprot P55084): 60.9; 100 Max (SQSTM1 Sequestosome-1; uniprot Q13501): 11.89; 100 ave (SQSTM1 Sequestosome-1; uniprot Q13501): −14.15; 500 Max (SQSTM1 Sequestosome-1; uniprot Q13501): 56.86; 500 ave (SQSTM1 Sequestosome-1; uniprot Q13501): 54.29; Liganded [2]: YES; 100 Max ([2]; uniprot O14867): 53.8; 100 ave ([2]; uniprot O14867): 53.8; 500 Max ([2]; uniprot O14867): 85.3; 500 ave ([2]; uniprot O14867): 85.3; 100 Max ([3]; uniprot P48735): 63.35; 100 ave ([3]; uniprot P48735): 43.06; 500 Max ([3]; uniprot P48735): 73.43; 500 ave ([3]; uniprot P48735): 70.11
